From PubChem BioAssay (NCI)
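Test compounds were applied to cells in 96-well plates for 48 hours at 5 doses. The concentration for 50% growth inhibition is given as GI50. The concentration for full growth arrest is given as TGI.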

Experiments:
Assay in all cases: DTP human tumour cell line panel, 48 h
CCRF-CEM leukemia = test system: CCRF-CEM leukemia
DU-145 prostate = test system: DU-145 prostate
UACC-257 melanoma = test system: UACC-257 melanoma
NCI/ADR-RES ovarian = test system: NCI/ADR-RES ovarian
NCI-H23 lung = test system: NCI-H23 lung
TK-10 renal = test system: TK-10 renal
K-562 leukemia = test system: K-562 leukemia
COLO 205 colon = test system: COLO 205 colon
RPMI-8226 leukemia = test system: RPMI-8226 leukemia
SR leukemia = test system: SR leukemia

SMILES	GI50 (CCRF-CEM leukemia) [µM]	TGI (CCRF-CEM leukemia) [µM]	GI50 (DU-145 prostate) [µM]	TGI (DU-145 prostate) [µM]	GI50 (UACC-257 melanoma) [µM]	TGI (UACC-257 melanoma) [µM]	GI50 (NCI/ADR-RES ovarian) [µM]	TGI (NCI/ADR-RES ovarian) [µM]	GI50 (NCI-H23 lung) [µM]	TGI (NCI-H23 lung) [µM]	GI50 (TK-10 renal) [µM]	TGI (TK-10 renal) [µM]	GI50 (K-562 leukemia) [µM]	TGI (K-562 leukemia) [µM]	GI50 (COLO 205 colon) [µM]	TGI (COLO 205 colon) [µM]	GI50 (RPMI-8226 leukemia) [µM]	TGI (RPMI-8226 leukemia) [µM]	TGI (SR leukemia) [µM]	GI50 (SR leukemia) [µM]
CCOC(=O)c1cc2c(cc1Cl)SC(=Nc1ccccc1)N(S(=O)(=O)c1ccc(Br)s1)S2(=O)=O	4.51	18.8	19	37	13.5	30.4	17.5	37.6	18.3	42.2	15.9	30.4	4.73	21.1	25.2	> 100	12.1	41.9	–	–
C[n+]1c2ccccc2nc2c(N)cc(N)cc21	4.63	48.3	16	> 100	–	–	83.3	> 100	5.13	26.6	64.9	> 100	3.07	33.2	3.49	19.4	4.54	33.9	–	–
N#CCN1C(=O)c2cc([N+](=O)[O-])cc3cc([N+](=O)[O-])cc(c23)C1=O	–	17.7	–	–	–	28.6	–	–	–	32.9	–	> 79.9	–	33.4	–	36.6	–	> 38.3	12.6	–
O=C(O)c1ccccc1NC(=S)c1ccccc1	–	> 100	–	> 100	–	> 100	–	> 100	–	> 100	–	> 100	–	> 100	–	> 100	–	75.8	–	–
C/C(=N\O)c1cccc(Nc2cc(-n3ccnc3)c3ccccc3n2)c1	24.9	64.5	18.9	35.8	–	–	17.2	59.2	16.7	33.6	15.6	38.8	18.9	73.1	13	29.1	21.2	> 100	–	–
N#CCCNc1nonc1-c1nc2ccccc2n1CC(=O)c1ccc(NC(=O)[C@@H](N)CCCCN)cc1	0.0368	> 100	0.0323	0.0994	> 100	> 100	–	–	0.0483	–	11.9	> 100	0.0322	> 100	0.0273	0.0709	0.0434	> 100	> 100	0.025
COc1ccc(OC(=O)CC2Cc3cc(OC)c(OC)c(OC)c3-c3ccc(SC)c(=O)cc32)cc1 (stereo unspecified)	–	10.1	–	–	–	> 54.2	–	–	–	14.9	–	> 100	–	> 100	–	> 100	–	14.4	> 100	–
C[CH2][Hg][S]c1ccccc1C(=O)O	0.291	2.74	1.83	3.41	1.18	2.45	1.94	4.79	1.18	2.7	1.42	2.73	–	–	1.24	2.86	1.28	4.24	3.75	0.444
COc1ccc(C(=O)/C=C/c2ccc(OCC#N)cc2)cc1	–	81	–	81.7	–	> 100	–	50	–	49.6	–	> 100	–	96.6	–	40.5	–	–	49.5	–
Cn1ccnc1Oc1ccc(Cl)cc1	–	–	–	30.7	–	21.5	–	49	–	39.5	–	32.6	–	42.3	–	25.7	–	2.85	–	–
COc1cc2c(cc1F)C(c1ccccc1Cl)=Nc1c(n[nH]c1C)N2	0.982	> 100	3.46	21	11.1	25.4	0.465	29.5	3.79	21	4.02	18.3	0.493	> 50.4	0.416	3.79	–	–	32.8	0.417
Cc1ccc(C2C3Cc4ccccc4C3=NN2c2ccc(S(=O)(=O)/N=c3\scc(-c4ccccc4)n3-c3ccccc3)cc2)cc1 (stereo unspecified)	17.1	44	24.7	81.9	20.4	43.3	–	–	–	–	19.1	63.6	14.9	32.6	23.3	52.1	13.4	35.6	24.5	11.1
